Laboratory results published in patent US20080070909A1, “ENANTIOMERICALLY PURE BETA AGONISTS, MANUFACTURING AND USE THEREOF” (priority 2006, published 2008).

CCC1(CC)OC(=O)N(CCC(C)(C)NCC(O)c2ccc(O)c(NS(C)(=O)=O)c2)c2ccccc21 (stereo not shown) [Example 10, N-(5-{2-[3-(4,4-diethyl-2-oxo-4H-benzo[d][1,3]oxazin-1-yl)-1,1-dimethyl-propylamino]-1-hydroxy-ethyl}-2-hydroxy-phenyl)-methanesulphonamide]
melting point: 168 °C
